Experimental data from patent US20070049564A1 (Wyeth, priority 2005, published 2007).
Values after ≈ are worked out from the molar mass of the structure shown. Like-named read-outs stand apart in the source and are kept apart here.

Columns and labels:
[1] = tested on: E. coli GC 2236; assay: MIC, broth microdilution; details: Escherichia coli
[2] = tested on: E. coli GC 2231; assay: MIC, broth microdilution; details: Escherichia coli
[3] = tested on: E. coli GC 2235; assay: MIC, broth microdilution; details: Escherichia coli
[4] = tested on: E. coli GC 2232; assay: MIC, broth microdilution; details: Escherichia coli
[5] = tested on: E. coli GC 2234; assay: MIC, broth microdilution; details: Escherichia coli
[6] = tested on: E. coli GC 4559; assay: MIC, broth microdilution; details: Escherichia coli
[7] = tested on: S. typhimurium GC 2172; assay: MIC, broth microdilution; details: Salmonella enterica, TYPHIMURIUM
[8] = tested on: S. aureus GC 6466; assay: MIC, broth microdilution; details: Staphylococcus aureus
[9] = tested on: S. aureus GC 4536; assay: MIC, broth microdilution; details: Staphylococcus aureus
[10] = tested on: S. aureus GC 2216; assay: MIC, broth microdilution; details: Staphylococcus aureus
[11] = tested on: E. faecalis GC 4555; assay: MIC, broth microdilution; details: Enterococcus faecalis
[12] = tested on: E. faecalis GC 2242; assay: MIC, broth microdilution; details: Enterococcus faecalis
[13] = tested on: E. faecium GC 4556; assay: MIC, broth microdilution; details: Enterococcus faecium
[14] = tested on: S. pneumoniae* GC 4465; assay: MIC, broth microdilution; details: Streptococcus pneumoniae
[15] = tested on: S. pneumoniae+ GC 4465; assay: MIC, broth microdilution; details: Streptococcus pneumoniae
[16] = tested on: S. pyogenes GC 4563; assay: MIC, broth microdilution; details: Streptococcus pyogenes
[17] = tested on: S. agalactiae GC 4564; assay: MIC, broth microdilution; details: Streptococcus agalactiae
[18] = tested on: E. coli; assay: Range of MIC for E. coli strains; details: Escherichia coli
[19] = tested on: Staph.; assay: Range of MIC for Staph. strains, including MRSA; details: Staphylococcus aureus
[20] = read-out: MINIMAL INHIBITORY CONCENTRATION MIC, Human Serum
[21] = read-out: MINIMAL INHIBITORY CONCENTRATION MIC, Mouse Serum
[22] = read-out: MINIMAL INHIBITORY CONCENTRATION MIC, Water

MIC ([1]; GC2236, read-out: MINIMAL INHIBITORY CONCENTRATION MIC, Human Serum): > 64 µg/mL
MIC ([1]; GC2236, read-out: MINIMAL INHIBITORY CONCENTRATION MIC, Mouse Serum): > 64 µg/mL
MIC ([1]; GC2236, read-out: MINIMAL INHIBITORY CONCENTRATION MIC, Water): > 64 µg/mL
MIC ([2]; GC2231, read-out: MINIMAL INHIBITORY CONCENTRATION MIC, Human Serum): > 64 µg/mL
MIC ([2]; GC2231, read-out: MINIMAL INHIBITORY CONCENTRATION MIC, Mouse Serum): > 64 µg/mL
MIC ([2]; GC2231, read-out: MINIMAL INHIBITORY CONCENTRATION MIC, Water): > 64 µg/mL
MIC ([3]; GC2235, read-out: MINIMAL INHIBITORY CONCENTRATION MIC, Human Serum): > 64 µg/mL
MIC ([3]; GC2235, read-out: MINIMAL INHIBITORY CONCENTRATION MIC, Mouse Serum): > 64 µg/mL
MIC ([3]; GC2235, read-out: MINIMAL INHIBITORY CONCENTRATION MIC, Water): > 64 µg/mL
MIC ([4]; GC2232, read-out: MINIMAL INHIBITORY CONCENTRATION MIC, Human Serum): > 64 µg/mL
MIC ([4]; GC2232, read-out: MINIMAL INHIBITORY CONCENTRATION MIC, Mouse Serum): > 64 µg/mL
MIC ([4]; GC2232, read-out: MINIMAL INHIBITORY CONCENTRATION MIC, Water): > 64 µg/mL
MIC ([5]; GC2234, read-out: MINIMAL INHIBITORY CONCENTRATION MIC, Human Serum): > 64 µg/mL
MIC ([5]; GC2234, read-out: MINIMAL INHIBITORY CONCENTRATION MIC, Mouse Serum): > 64 µg/mL
MIC ([5]; GC2234, read-out: MINIMAL INHIBITORY CONCENTRATION MIC, Water): > 64 µg/mL
MIC ([6]; GC4559, read-out: MINIMAL INHIBITORY CONCENTRATION MIC, Human Serum): > 64 µg/mL
MIC ([6]; GC4559, read-out: MINIMAL INHIBITORY CONCENTRATION MIC, Mouse Serum): > 64 µg/mL
MIC ([6]; GC4559, read-out: MINIMAL INHIBITORY CONCENTRATION MIC, Water): > 64 µg/mL
MIC [7, 20]: > 64 µg/mL
MIC [7, 21]: > 64 µg/mL
MIC [7, 22]: > 64 µg/mL
MIC ([8]; GC6466, read-out: MINIMAL INHIBITORY CONCENTRATION MIC, Human Serum): 4 µg/mL (≈ 5.83 µM)
MIC ([8]; GC6466, read-out: MINIMAL INHIBITORY CONCENTRATION MIC, Mouse Serum): 2 µg/mL (≈ 2.92 µM)
MIC ([8]; GC6466, read-out: MINIMAL INHIBITORY CONCENTRATION MIC, Water): 4 µg/mL (≈ 5.83 µM)
MIC ([9]; GC4536, read-out: MINIMAL INHIBITORY CONCENTRATION MIC, Human Serum): 4 µg/mL (≈ 5.83 µM)
MIC ([9]; GC4536, read-out: MINIMAL INHIBITORY CONCENTRATION MIC, Mouse Serum): 2 µg/mL (≈ 2.92 µM)
MIC ([9]; GC4536, read-out: MINIMAL INHIBITORY CONCENTRATION MIC, Water): 4 µg/mL (≈ 5.83 µM)
MIC ([10]; GC2216, read-out: MINIMAL INHIBITORY CONCENTRATION MIC, Human Serum): 4 µg/mL (≈ 5.83 µM)
MIC ([10]; GC2216, read-out: MINIMAL INHIBITORY CONCENTRATION MIC, Mouse Serum): 2 µg/mL (≈ 2.92 µM)
MIC ([10]; GC2216, read-out: MINIMAL INHIBITORY CONCENTRATION MIC, Water): 4 µg/mL (≈ 5.83 µM)
MIC ([11]; GC4555, read-out: MINIMAL INHIBITORY CONCENTRATION MIC, Human Serum): 4 µg/mL (≈ 5.83 µM)
MIC ([11]; GC4555, read-out: MINIMAL INHIBITORY CONCENTRATION MIC, Mouse Serum): 4 µg/mL (≈ 5.83 µM)
MIC ([11]; GC4555, read-out: MINIMAL INHIBITORY CONCENTRATION MIC, Water): 8 µg/mL (≈ 11.7 µM)
MIC ([12]; GC2242, read-out: MINIMAL INHIBITORY CONCENTRATION MIC, Human Serum): 4 µg/mL (≈ 5.83 µM)
MIC ([12]; GC2242, read-out: MINIMAL INHIBITORY CONCENTRATION MIC, Mouse Serum): 2 µg/mL (≈ 2.92 µM)
MIC ([12]; GC2242, read-out: MINIMAL INHIBITORY CONCENTRATION MIC, Water): 4 µg/mL (≈ 5.83 µM)
MIC ([13]; GC4556, read-out: MINIMAL INHIBITORY CONCENTRATION MIC, Human Serum): 4 µg/mL (≈ 5.83 µM)
MIC ([13]; GC4556, read-out: MINIMAL INHIBITORY CONCENTRATION MIC, Mouse Serum): 2 µg/mL (≈ 2.92 µM)
MIC ([13]; GC4556, read-out: MINIMAL INHIBITORY CONCENTRATION MIC, Water): 4 µg/mL (≈ 5.83 µM)
MIC [14, 20]: 4 µg/mL (≈ 5.83 µM)
MIC [14, 21]: 2 µg/mL (≈ 2.92 µM)
MIC [14, 22]: 2 µg/mL (≈ 2.92 µM)
MIC [15, 20]: 4 µg/mL (≈ 5.83 µM)
MIC [15, 21]: 4 µg/mL (≈ 5.83 µM)
MIC [15, 22]: 8 µg/mL (≈ 11.7 µM)
MIC ([16]; GC4563, read-out: MINIMAL INHIBITORY CONCENTRATION MIC, Human Serum): 4 µg/mL (≈ 5.83 µM)
MIC ([16]; GC4563, read-out: MINIMAL INHIBITORY CONCENTRATION MIC, Mouse Serum): 4 µg/mL (≈ 5.83 µM)
MIC ([16]; GC4563, read-out: MINIMAL INHIBITORY CONCENTRATION MIC, Water): 4 µg/mL (≈ 5.83 µM)
MIC ([17]; GC4564, read-out: MINIMAL INHIBITORY CONCENTRATION MIC, Human Serum): 16 µg/mL (≈ 23.3 µM)
MIC ([17]; GC4564, read-out: MINIMAL INHIBITORY CONCENTRATION MIC, Mouse Serum): 8 µg/mL (≈ 11.7 µM)
MIC ([17]; GC4564, read-out: MINIMAL INHIBITORY CONCENTRATION MIC, Water): 8 µg/mL (≈ 11.7 µM)
MIC ([18]; 20 h, read-out: Range of MIC, E. coli (Mouse Serum)): > 64 µg/mL
MIC ([18]; read-out: Minimum inhibitory concentration (MIC), E. coli (Human Serum)): > 64 µg/mL
MIC ([18]; read-out: Minimum inhibitory concentration (MIC), E. coli (water)): > 64 µg/mL
MIC ([18]; read-out: Range of MIC, E. coli (Water)): > 64 µg/mL
MIC ([19]; MRSA, read-out: Range of MIC, Staph (Mouse Serum)): 2 to 4 µg/mL (≈ 2.92 to 5.83 µM)
MIC ([19]; MRSA, read-out: Range of MIC, Staph (Water)): 4 to 8 µg/mL (≈ 5.83 to 11.7 µM)
MIC ([19]; read-out: Minimum inhibitory concentration (MIC), Staph (Human Serum)): 4 µg/mL (≈ 5.83 µM)
MIC ([19]; read-out: Minimum inhibitory concentration (MIC), Staph (Water)): 4 to 8 µg/mL (≈ 5.83 to 11.7 µM)
SMILES: CCCCOC(=O)N(CC(=O)Nc1cc(N(C)C)c2c(c1O)C(=O)C1=C(O)[C@]3(O)C(=O)C(C(N)=O)=C(O)[C@@H](N(C)C)[C@@H]3C[C@@H]1C2)C(C)(C)C [Example 58, butyl 2-{[(5aR,6aS,7S,10aS)-9-(aminocarbonyl)-4,7-bis(dimethylamino)-1,8,10a,11-tetrahydroxy-10,12-dioxo-5,5a,6,6a,7,10,10a,12-octahydrotetracen-2-yl]amino}-2-oxoethyl(tert-butyl)carbamate]
